Test results: patent publication US9309236B2, “PI-kinase inhibitors with broad spectrum anti-infective activity” (The Board of Trustees of the Leland Stanford Junior …, priority 2011, dated 2016)
Read-outs that look alike come from different tables or passages of the source.

Key:
HCV genotype 2a = assay: microbe, parasite or virus in culture; type: cell-based; conditions: luciferase reporter assay, read-out: 2a EC50
Protocol: Anti-HCV assays are performed as described by Cho et al. “Identification of a class of HCV inhibitors directed against the nonstructural protein NS4B.” Sci. Transl.
(§1) The compounds of Table 1 were prepared according to the methods described above.

[1] = Cell toxicity (CC50), Table 3; type: cell-based; conditions: human, Huh7.5 cells
Protocol: as §1

[2] = Hepatitis C virus, Huh7.5, HCV genotype 2a in Huh7.5 cells

Structure (SMILES)	EC50 (HCV genotype 2a; [2])	CC50 [1]	EC50 (HCV genotype 2a; HCV genotype 2a in Huh7.5 cells)
COc1ccc(-c2sc(NC(=O)CC3CCCCC3)nc2C)cc1S(=O)(=O)Nc1ccc(O)cc1 [AB3680]	> 1000 nM	54000 nM	
COc1ccc(-c2sc(NC(=O)CC3CCCCC3)nc2C)cc1S(=O)(=O)Nc1cccc(O)c1 [AB3826]	< 200 nM		
COc1ccc(-c2sc(NC(=O)CCC3CCCC3)nc2C)cc1S(=O)(=O)Nc1cccc(O)c1 [AB3837]	200 to 1000 nM	22000 nM	
COc1ccc(-c2sc(NC(=O)C3CCCC3)nc2C)cc1S(=O)(=O)Nc1cnc(OC)c(C)c1 [AB3864]	200 to 1000 nM		
COc1ccc(-c2sc(NC3CCCCC3)nc2C)cc1S(=O)(=O)Nc1cnc(Cl)c(C)c1 [AB3946]	200 to 1000 nM		
COc1ccc(-c2sc(NC3CCCCC3)nc2C)cc1S(=O)(=O)Nc1cnc(OC)c(C)c1 [AB3948]	200 to 1000 nM		
COc1cc(C)c(NS(=O)(=O)c2cc(-c3sc(NC4CCCCC4)nc3C)ccc2OC)cn1 [AB3950]	< 200 nM	12000 nM	
COc1ccc(NS(=O)(=O)c2cc(-c3sc(NC4CCCCC4)nc3C)ccc2OC)cn1 [AB3957]	200 to 1000 nM	9000 nM	
COc1ccc(-c2sc(NC(C)C)nc2C)cc1S(=O)(=O)Nc1cnc(Cl)c(C)c1 [AB3977]	200 to 1000 nM		
COc1cc(C)c(NS(=O)(=O)c2cc(-c3sc(NC(C)C)nc3C)ccc2OC)cn1 [AB3979]	200 to 1000 nM		
COc1ccc(-c2sc(NC3CCCCC3)nc2C)cc1S(=O)(=O)Nc1ccc(Cl)nc1 [AB4024]	200 to 1000 nM		
COc1ccccc1NS(=O)(=O)c1cc(-c2sc(NC3CCCCC3)nc2C)ccc1OC [AB4025]	200 to 1000 nM	13000 nM	
COc1ccc(-c2sc(NC(=O)C3CCCC3)nc2C)cc1S(=O)(=O)Nc1ccc(Cl)nc1 [AB4050]	200 to 1000 nM		
COc1ccccc1NS(=O)(=O)c1cc(-c2sc(NC(=O)C3CCCC3)nc2C)ccc1OC [AB4051]	200 to 1000 nM		
COc1ccc(-c2sc(NC3CCCCC3)nc2C)cc1S(=O)(=O)Nc1cnc(F)cc1C [AB4052]	< 200 nM		
COc1ccc(NS(=O)(=O)c2cc(-c3sc(NC4CCCCC4)nc3C)ccc2OC)c(OC)n1 [AB4053]	200 to 1000 nM		
COc1ccc(NS(=O)(=O)c2cc(-c3sc(NC(=O)C4CCCC4)nc3C)ccc2OC)c(OC)n1 [AB4054]	200 to 1000 nM		
COc1ccc(-c2sc(NC3CCCCC3)nc2C)cc1S(=O)(=O)Nc1ccc(C)cc1 [AB4106]	200 to 1000 nM	58500 nM	
COc1cc(C)c(NS(=O)(=O)c2cc(-c3sc(NC(=O)CC4CCCC4)nc3C)ccc2OC)cn1 [AB4107]	200 to 1000 nM		
COc1ccc(-c2sc(NC(=O)CC3CCCC3)nc2C)cc1S(=O)(=O)Nc1cnc(Cl)c(C)c1 [AB4108]	200 to 1000 nM		
COc1ccc(-c2sc(NC(=O)CC3CCCC3)nc2C)cc1S(=O)(=O)Nc1cccc(O)c1 [AB4109]	200 to 1000 nM	20700 nM	
COc1ccc(NS(=O)(=O)c2cc(-c3sc(NC(=O)CC4CCCC4)nc3C)ccc2OC)c(C)c1 [AB4110]	200 to 1000 nM		
COc1ccc(-c2sc(NC(=O)CC3CCCC3)nc2C)cc1S(=O)(=O)Nc1cnc(F)cc1C [AB4111]	200 to 1000 nM		
COc1cc(C)c(NS(=O)(=O)c2cc(-c3sc(NC(=O)CC4CCCCC4)nc3C)ccc2OC)cn1 [AB4112]	200 to 1000 nM		
COc1ccc(-c2sc(NC(=O)CC3CCCCC3)nc2C)cc1S(=O)(=O)Nc1cnc(Cl)c(C)c1 [AB4113]	200 to 1000 nM		

Structure (SMILES)	EC50 (HCV genotype 2a; [2])	CC50 [1]	EC50 (HCV genotype 2a; HCV genotype 2a in Huh7.5 cells)
COc1ccc(-c2sc(NC(=O)CC3CCCCC3)nc2C)cc1S(=O)(=O)Nc1cccc(O)c1 [AB4114]			200 to 1000 nM
COc1ccc(NS(=O)(=O)c2cc(-c3sc(NC(=O)CC4CCCCC4)nc3C)ccc2OC)c(C)c1 [AB4115]	200 to 1000 nM		
COc1ccc(-c2sc(NC(=O)CC3CCCCC3)nc2C)cc1S(=O)(=O)Nc1cnc(F)cc1C [AB4116]	200 to 1000 nM		
COc1ccc(-c2sc(NC3CCCCCC3)nc2C)cc1S(=O)(=O)Nc1cccc(O)c1 [AB4139]	200 to 1000 nM		
COc1ccc(NS(=O)(=O)c2cc(-c3sc(NC4CCCCCC4)nc3C)ccc2OC)c(C)c1 [AB4140]	200 to 1000 nM		
COc1ccc(-c2sc(NC3CCCCCC3)nc2C)cc1S(=O)(=O)Nc1cnc(Cl)c(C)c1 [AB4141]	200 to 1000 nM		
COc1ccc(-c2sc(NC3CCCCCC3)nc2C)cc1S(=O)(=O)Nc1ccc(Cl)cc1F [AB4145]	200 to 1000 nM		
COc1ccc(-c2sc(NC(=O)CC3CCCC3)nc2C)cc1S(=O)(=O)Nc1ccc(Cl)cc1F [AB4171]	200 to 1000 nM		
COc1ccc(-c2sc(NC3CCCCC3)nc2C)cc1S(=O)(=O)NC1CCNCC1 [AB4173]	> 1000 nM		
COc1ccc(-c2sc(NC3CCCCC3)nc2C)cc1S(=O)(=O)NC1CCCNC1 (centres unmarked) [AB4174]	> 1000 nM		
COc1ccc(-c2sc(NC(=O)C3CCCC3)nc2C)cc1S(=O)(=O)NC1CCNCC1 [AB4178]	> 1000 nM		
COc1ccc(-c2sc(NC(=O)C3CCCC3)nc2C)cc1S(=O)(=O)NC1CCCNC1 (centres unmarked) [AB4179]	> 1000 nM		
COc1ccc(-c2sc(NC(=O)C3CCCC3)nc2C)cc1S(=O)(=O)Nc1ccc(Cl)cc1 [AB4185]	> 1000 nM		
COc1ccc(-c2sc(NCC3CCCCC3)nc2C)cc1S(=O)(=O)Nc1cnc(F)cc1C [AB4225]	200 to 1000 nM		
COc1ccc(-c2sc(NCC3CCCCC3)nc2C)cc1S(=O)(=O)Nc1cnc(Cl)c(C)c1 [AB4226]	200 to 1000 nM		
COc1ccc(-c2sc(NCC3CCCCC3)nc2C)cc1S(=O)(=O)NC1CCCNC1 (centres unmarked) [AB4227]	> 1000 nM		
COc1ccc(-c2sc(NCC3CCCCC3)nc2C)cc1S(=O)(=O)NCC1CCNCC1 [AB4228]	> 1000 nM		
COc1ccc(-c2sc(NCC3CCCCC3)nc2C)cc1S(=O)(=O)Nc1cnc(Cl)c(F)c1 [AB4229]	> 1000 nM		
COc1ccc(-c2sc(NCC3CCCCC3)nc2C)cc1S(=O)(=O)NC1CCNCC1 [AB4237]	> 1000 nM		
COc1ccc(-c2sc(CC3CCCCC3)nc2C)cc1S(=O)(=O)Nc1cnc(Cl)c(C)c1 [AB4239]	200 to 1000 nM		
COc1ccc(-c2sc(CC3CCCCC3)nc2C)cc1S(=O)(=O)NC1CCNCC1 [AB4240]	> 1000 nM		
COc1ccc(-c2sc(CC3CCCCC3)nc2C)cc1S(=O)(=O)NC1CCCNC1 (centres unmarked) [AB4241]	> 1000 nM		
COc1ccc(-c2sc(CC3CCCCC3)nc2C)cc1S(=O)(=O)Nc1ccc(Cl)c(F)c1 [AB4242]	200 to 1000 nM		
COc1ccc(-c2sc(CC3CCCCC3)nc2C)cc1S(=O)(=O)Nc1ccc(Cl)c(C)c1 [AB4243]	200 to 1000 nM		
